Where a name gives a salt, the structure may show the parent alone.
Key:
neurons [1] = assay: Drug fingerprint activity detector in the 400 compound screen; assay type: cell-based; conditions: Retigabine positive CTL wells
From the text: To address this challenge, the invention provides a neuronal fingerprinting-based activity detector. In embodiments, the method calculates the fingerprints for each sample, then determines which fingerprints lie inside the “cloud of inertness” defined by the high-n replication of control wells. Samples that give a very low probability of being inert are then labeled as active. This technique is enabled by two assets: 1) a fitted fingerprinting algorithm, such as is described above, with which to find fingerprints and 2) control samples to populate the “cloud of inertness” at the center of the fingerprint space. The determination of the probability of inertness can be made using several computationally inexpensive techniques, including multivariate gaussian distributions and nonparametric kernel density estimation.
FIG. 59 illustrates a drug fingerprint as an activity detector, which could be used for inertness identifier as well. […] Bioactivity of compounds across varying concentrations can be automatically detected in the trained drug space. […] Throughout the 400 compound screen, activity was detected for 99.8% of the Retigabine positive CTL wells and 25.1% of experimental wells (403 compounds across 10 concentrations). For compounds where activity was detected, activity was detected for 49.5% of the wells with the highest third of doses and for 61% of the highest doses. […]

[2] = tested on: E18 rat hippocampal neurons; assay: Optopatch spiking behavior of cultured rat hippocampal neurons with compounds; assay type: cell-based; conditions: for drug-induced changes in neuronal spiking behavior (radar plots): features normalized to control vehicle
Experimental: E18 rat hippocampal neurons were cultured for 14 days and caused to express Optopatch proteins as described in Example 1. The cells were stimulated in the presence of XE-991 (a Kv7.x blocker), ML-213 (a Kv7.x opener), α-Dendrotoxin (a Kv1.x blocker), OXO-M (a muscarinic agonist), 4AP (a promiscuous Kv blocker), Isradipine (a Cav1.x blocker), or a control vehicle.
FIG. 22 provides radar plots showing the drug-induced changes in neuronal spiking behavior along many dimensions, which are merely a subset of the action potential features extracted from recordings of the stimulated cells in the presence of one of the listed compounds. The action potential feature values were normalized to those for the cells simulated in the presence of the control vehicle. As shown in the radar plots, each compound provided a discernable and unique effect to the action potential features of the cell.
E18 rat hippocampal neurons were cultured for 14 days and caused to express Optopatch proteins as described in Example 1. The cells were placed in wells of a 96-well plate. ML-213 at 1 μM was added to alternating columns of the plate and a control vehicle added to the remaining columns. The cells in all wells were stimulated and their action potentials recorded using a microscope as described in Example 1.

[3] = tested on: KCNQ2 R201C gain-of-function mutant line; assay: Drug fingerprint phenotype reversal in KCNQ2 R201C line; assay type: cell-based; conditions: several concentrations
From the text: (§1) An autoencoder reduces 518 features extracted from Optopatch measurements through an 8-dimensional bottleneck layer (the “embedding”) before attempting to expand back out and reconstruct the initial inputs. The embeddings are information-dense and (because of the preceding depth) reflect high-order representations. The autoencoder may implement a swish activation function between any layers (e.g., between the 518 and 50 dimensional layers, or between the 50 and 25 dimensional layers. Activation functions extend neural networks behavior to non-linear data. Thus the autoencoder is useful for deriving drug fingerprints with representation learning.
For example, the potassium voltage-gated channel subfamily Q member 2 (KCNQ2) protein and gene are implicated in KCNQ2 encephalopathy, which typically presents with seizures in the first week of life. It is understood that mutation of […] at position 201 in KCNQ2 (R201C) is a gain-of-function mutation that may give rise to KCNQ2 encephalopathy. Using methods of the invention, neurons with and without the R201C mutation may be measured with optopatch and a system such as an autoencoder may create a phenotype. Each phenotype may be plotted in the 8-dimensional space by the autoencoder, which may also plot a drug fingerprint. […]

neurons [4] = assay: Nearest neighbor matching of 8-dimensional drug fingerprints across the 400 compound library; assay type: cell-based; conditions: nearest neighbor query across the 400 compound library
From the text: as §1
Over 400 compounds have been assessed in 10-point concentration response curves (CRCs) in neuronal excitability assays.
In general, the highest concentrations of the compounds are associated with the largest deviation from control. The action potential traces of FIG. 48 are shown to the autoencoder of FIG. 45, which derives for each compound an 8-dimensional fingerprint such as the two (two replicates of one compound) shown in FIG. 46. […]
GSK 3787 is a potent and selective peroxisome proliferator-activated receptor δ (PPARδ) antagonist. […] Software may read hundreds (e.g., 512) of features of action potentials fluorescently shown in the movies. […]

[5] = tested on: hiPSC-derived motor neurons; assay: Optopatch excitability recording in hiPSC-derived motor neurons, before and after compound addition; assay type: cell-based, human; conditions: 1 μM ML213; same field of view recorded before and after addition; blue light stimulus
From the text: Human induced pluripotent stem cells (hiPSC) were differentiated into hiPSC-derived motor neurons. The cells expressed an optogenetic proteins from the Optopatch toolkit (optical stimulation plus optical voltage reporting, e.g., CheRiff & QuasAr), which allows simultaneous optical stimulation and recording of neuronal action potentials.
The channelrhodopsin CheRiff enables action potential stimulation with blue light and the voltage-sensitive fluorescent protein QuasAr enables high-speed electrical recordings with red light. A microscope, as disclosed herein, obtained simultaneous voltage recordings from >100 individual neurons over a large (0.5×4 mm) field of view (FOV) with 1 ms temporal resolution and high signal-to-noise ratio (SNR). A digital micromirror device (DMD) in the microscope projected a fully reconfigurable optical pattern to sequentially stimulate individual cells while recording from many post-synaptic partners. […]
In every voltage trace the spikes were detected and the key spike shape and timing parameters were computed. […]
Pixels in the recording that captured fluorescence from the reporters of membrane potential in each neuron co-varied in time following that cell's unique firing pattern. […] Each FOV was recorded twice, before and after addition of potassium channel opener ML213. […]

[6] = tested on: iPSC-derived excitatory cortical neurons (NGN2) with loss of function knockout (KO); assay: Optopatch action potential features in knockout disease-model iPSC-derived cortical neurons; assay type: cell-based, human; conditions: for cell behavior projected onto the phenotype/side effect space: KO cells, 8 concentrations from 0.28 to 600 μM, two replicates; for reversal of functional phenotype of disease-model cells (radar plots of action potential features): KO disease-model cells, features normalized to control cells
Experimental: In this example, iPSC-derived excitatory cortical neurons (NGN2) were grown for 30 days in a culture. The neurons expressed Optopatch proteins as described in Example 1. Two sets of neurons were grown. The first was a wildtype control line. […] The cells were stimulated using blue light as described in Example 1 and their action potentials recorded as voltage traces. Recordings were made of the control cells and disease-model cells when stimulated in the absence of any test compound. Recordings were also made of the disease-model cells when stimulated in the presence of the promiscuous potassium channel blocker 4-AP and the promiscuous sodium channel blocker lamotrigine.
FIG. 19 provides radar plots showing action potential features extracted from the recorded action potential features when stimulated by blue light. The values for the features are normalized to the control cell recordings. […] The differences in the recorded traces, select features of which are provided on the radar plots, show the functional phenotype of the disease-model in red.
FIG. 20 is a diagram illustrating phenotype reversal and “side effects” described by mapping extracted action potential features on the ˜300-dimensional space of recorded parameters, only two of which are shown. Extracted features for the control cell (WT) wells (green) are clustered as are those for the KO cells (red). The vector between these populations represents the phenotype (red). Drug effects (blue) are deconstructed into components along (phenotype reversal) and orthogonal to (side effects) the phenotype vector. An ideal drug would undo the effects of the mutation and move the well from the KO cluster to the control cell cluster.
FIG. 21 is a plot showing many wells projected onto the phenotype/side effect space. WT and KO wells are well separated along the phenotype direction. Application of the two compounds (8 concentrations from 0.28 to 600 μM) from FIG. 25 have increasing effects on KO cell behavior as the concentration increases. […] The connected drug points are in order of increasing concentration, and the two lines are experimental replicates on two consecutive weeks of experiment.

Row | Compound | drug-induced changes in neuronal spiking behavior (radar plots) [2] | cell behavior projected onto the phenotype/side effect space [6] | reversal of functional phenotype of disease-model cells (radar plots of action potential features) [6] | further results
1 | CCOC(=O)Nc1ccc(NCc2ccc(F)cc2)cc1N [Retigabine] |  |  |  | wells in which activity was detected (neurons [1]): 99.8%
2 | O=C1c2ccccc2C(Cc2ccncc2)(Cc2ccncc2)c2ccccc21 [XE-991] | drove cellular response, as expected |  |  | 
3 | O=C1N(c2ccccc2)c2ccccc2C1(Cc1ccncc1)Cc1ccncc1 [Linopirdine hydrochloride] |  |  |  | reversal of KCNQ2 R201C gain-of-function phenotype in 8-dimensional drug fingerprint space [3]: reverses the disease phenotype
4 | Cc1cc(C)c(NC(=O)C2CC3CCC2C3)c(C)c1 (centres unmarked) [ML213] | drove cellular response, as expected |  |  | drug fingerprint similarity to query compound ICA-27243 (neurons [4]): highly similar drug fingerprints; average firing rate during the blue light stimulus ramp ([2]; ML-213 at 1 μM versus vehicle, 96-well plate): dramatically reduces firing rate; neuronal excitability [5]: clear reduction in neuronal excitability
5 | Nc1nnc(-c2cccc(Cl)c2Cl)c(N)n1 [lamotrigine] |  | moves behavior away from both WT and KO | perturbed behavior but did not reverse the phenotype | 
6 | Nc1ccncc1 [4-AP] |  | moves cell behavior toward and beyond WT behavior | substantially reversed the phenotype | 

Source: US20220357313A1, “DRUG FINGERPRINTING” (Q-STATE BIOSCIENCES, INC., priority 2021, published 2022)
